Test results published in patent US10040759B2, “Substituted azetidinyl compounds as GlyT1 inhibitors” (DART NEUROSCIENCE (CAYMAN) LTD., priority 2014, dated 2018).

Target: T1, GlyT1 (Homo sapiens, UniProt P48067)
T1 construct: expressed in transfected cells
T1 sequence (P48067 1-706): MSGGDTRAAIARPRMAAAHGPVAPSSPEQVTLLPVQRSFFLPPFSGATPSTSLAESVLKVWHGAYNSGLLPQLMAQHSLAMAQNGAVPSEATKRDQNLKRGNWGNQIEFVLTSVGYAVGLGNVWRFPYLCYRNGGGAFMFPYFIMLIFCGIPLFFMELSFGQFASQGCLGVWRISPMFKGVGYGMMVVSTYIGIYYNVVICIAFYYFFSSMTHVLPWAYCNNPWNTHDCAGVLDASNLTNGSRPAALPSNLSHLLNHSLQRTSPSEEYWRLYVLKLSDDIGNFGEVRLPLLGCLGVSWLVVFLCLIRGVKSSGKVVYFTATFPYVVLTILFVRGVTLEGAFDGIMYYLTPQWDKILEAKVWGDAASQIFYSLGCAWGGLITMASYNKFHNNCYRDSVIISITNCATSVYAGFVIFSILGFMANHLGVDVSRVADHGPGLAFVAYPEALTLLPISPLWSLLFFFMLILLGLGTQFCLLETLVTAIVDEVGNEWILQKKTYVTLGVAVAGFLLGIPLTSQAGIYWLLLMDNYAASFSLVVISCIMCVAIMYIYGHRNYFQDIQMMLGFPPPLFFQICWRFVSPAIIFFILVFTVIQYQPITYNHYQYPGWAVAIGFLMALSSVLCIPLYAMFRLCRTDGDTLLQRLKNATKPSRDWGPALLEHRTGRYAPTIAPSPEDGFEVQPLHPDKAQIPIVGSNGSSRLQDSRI
Experiment: Glycine Transporter 1 (GlyT1) uptake assay, scintillation proximity assay of [14C]-glycine uptake
Assay type: cell-based
Conditions: [14C]-glycine uptake; read-out: GlyT1 (pIC50) (converted)
Protocol: Glycine Transporter 1 (GlyT1) Uptake Assay
HEK293 cells stably expressing hGlyT1c were plated onto 96-well Cytostar plates at a density of 4.5×10^4 cells per well in 100 μL of growth media (DMEM containing 10% fetal bovine serum) and incubated overnight in a 37° C., 10% CO2 incubator. The following day, stock compounds in 10 mM DMSO were serially diluted in DMSO, and 2× compound solutions were prepared by diluting compound again (1:100) in HBSS. […] Plates were then read on a MicroBeta plate counter (Perkin Elmer). Dose-response data for tested compounds were analyzed and curves were fit using a four parameter logistic fit to determine IC50 values. […]

Row | Structure (SMILES) | IC50 [nM]
1 | COc1c(S(C)(=O)=O)ccc(O[C@@H](C)C(F)(F)F)c1C(=O)N1CC(Oc2ccc(C(F)(F)F)cn2)C1 [Example 61, 2-{[1-(3-Methanesulfonyl-2-methoxy-6-{[(2S)-1,1,1-trifluoropropan-2-yl]oxy}benzoyl)azetidin-3-yl]oxy}-5-(trifluoromethyl)pyridine] | 100 to 1000
2 | COc1c(C#N)ccc(C2(F)CCCC2)c1C(=O)N1CC(c2ccc(C(F)(F)F)cn2)C1 [Example 193, 4-(1-Fluorocyclopentyl)-2-methoxy-3-{3-[5-(trifluoromethyl)pyridin-2-yl]azetidine-1-carbonyl}benzonitrile] | < 100
3 | COc1c(C#N)ccc(O[C@@H](C)C(F)(F)F)c1C(=O)N1CC(F)(c2ccc(F)c(F)c2)C1 [Example 70, 3-{[3-(3,4-Difluorophenyl)-3-fluoroazetidin-1-yl]carbonyl}-2-methoxy-4-{[(2S)-1,1,1-trifluoropropan-2-yl]oxy}benzonitrile] | 100 to 1000
4 | COc1c(C#N)ccc(O[C@@H](C)C(F)(F)F)c1C(=O)N1CC(c2ncccc2Cl)C1 [Example 38, 3-{[3-(3-Chloropyridin-2-yl)azetidin-1-yl]carbonyl}-2-methoxy-4-{[(2S)-1,1,1-trifluoropropan-2-yl]oxy}benzonitrile] | < 100
5 | COc1c(S(C)(=O)=O)ccc(OC(C)C)c1C(=O)N1CC(Oc2c(F)cc(F)cc2F)C1 [Example 221, 1-[3-Methanesulfonyl-2-methoxy-6-(propan-2-yloxy)benzoyl]-3-(2,4,6-trifluorophenoxy)azetidine] | < 100
6 | N#Cc1ccc(C2CN(C(=O)c3c(OCC(F)(F)F)ccc(C#N)c3Cl)C2)cc1 [Example 106, 2-Chloro-3-{[3-(4-cyanophenyl)azetidin-1-yl]carbonyl}-4-(2,2,2-trifluoroethoxy)benzonitrile] | < 100
7 | C[C@H](Oc1ccc(C#N)c(Cl)c1C(=O)N1CC(c2ccc(C(F)(F)F)cc2)C1)C(F)(F)F [Example 107, 2-Chloro-3-({3-[4-(trifluoromethyl)phenyl]azetidin-1-yl}carbonyl)-4-{[(2S)-1,1,1-trifluoropropan-2-yl]oxy}benzonitrile] | < 100
8 | COc1c(S(C)(=O)=O)ccc(O[C@@H](C)C(F)(F)F)c1C(=O)N1CC(Oc2ccc(F)c(C)c2)C1 [Example 43, 3-(4-Fluoro-3-methylphenoxy)-1-(3-methanesulfonyl-2-methoxy-6-{[(2S)-1,1,1-trifluoropropan-2-yl]oxy}benzoyl)azetidine] | 100 to 1000
9 | COc1cc(C2CN(C(=O)c3c(O[C@@H](C)C(F)(F)F)ccc(S(C)(=O)=O)c3OC)C2)ccc1C(F)(F)F [Example 144, 1-(3-Methanesulfonyl-2-methoxy-6-{[(2S)-1,1,1-trifluoropropan-2-yl]oxy}benzoyl)-3-[3-methoxy-4-(trifluoromethyl)phenyl]azetidine] | 1000 to 10000
10 | COc1c(C#N)ccc(O[C@H](C)C(F)(F)F)c1C(=O)N1CC(c2ccc(C3CCC(F)(F)CC3)cn2)C1 [Example 172, 3-{3-[5-(4,4-Difluorocyclohexyl)pyridin-2-yl]azetidine-1-carbonyl}-2-methoxy-4-{[(2R)-1,1,1-trifluoropropan-2-yl]oxy}benzonitrile] | < 100
11 | COc1c(S(C)(=O)=O)ccc(O[C@H](C)C(F)(F)F)c1C(=O)N1CC(Cc2ccc(F)cc2)C1 [Example 39, 3-[(4-Fluorophenyl)methyl]-1-(3-methanesulfonyl-2-methoxy-6-{[(2R)-1,1,1-trifluoropropan-2-yl]oxy}benzoyl)azetidine] | 100 to 1000
12 | COc1c(S(C)(=O)=O)ccc(OC(C)C)c1C(=O)N1CC(Oc2ccc(Cl)cc2)C1 [Example 219, 3-(4-Chlorophenoxy)-1-[3-methanesulfonyl-2-methoxy-6-(propan-2-yloxy)benzoyl]azetidine] | 100 to 1000
13 | COc1c(S(C)(=O)=O)ccc(O[C@@H](C)C(F)(F)F)c1C(=O)N1CC(c2cc(F)c(F)c(F)c2)C1 [Example 150, 1-(3-Methanesulfonyl-2-methoxy-6-{[(2S)-1,1,1-trifluoropropan-2-yl]oxy}benzoyl)-3-(3,4,5-trifluorophenyl)azetidine] | < 100
14 | CCOc1c(C#N)ccc(C2CN(C(=O)c3c(O[C@@H](C)C(F)(F)F)ccc(C#N)c3OC)C2)c1Cl [Example 176, 3-Chloro-4-[1-(3-cyano-2-methoxy-6-{[(2S)-1,1,1-trifluoropropan-2-yl]oxy}benzoyl)azetidin-3-yl]-2-ethoxybenzonitrile] | < 100
15 | COc1c(C#N)ccc(OCC(F)(F)F)c1C(=O)N1CC(c2ccc(C(F)(F)F)cn2)C1 [Example 125, 2-Methoxy-4-(2,2,2-trifluoroethoxy)-3-({3-[5-(trifluoromethyl)pyridin-2-yl]azetidin-1-yl}carbonyl)benzonitrile] | < 100
16 | C[C@H](Oc1ccc(C#N)c(Cl)c1C(=O)N1CC(c2ccc(C#N)cc2Cl)C1)C(F)(F)F [Example 131, 2-Chloro-3-{[3-(2-chloro-4-cyanophenyl)azetidin-1-yl]carbonyl}-4-{[(2S)-1,1,1-trifluoropropan-2-yl]oxy}benzonitrile] | < 100
17 | COc1c(C#N)ccc(O[C@@H](C)C(F)(F)F)c1C(=O)N1CC(c2ccc(C3CCOCC3)c(F)c2)C1 [Example 163, 3-{3-[3-Fluoro-4-(oxan-4-yl)phenyl]azetidine-1-carbonyl}-2-methoxy-4-{[(2S)-1,1,1-trifluoropropan-2-yl]oxy}benzonitrile] | < 100
18 | COc1c(S(C)(=O)=O)ccc(O[C@@H](C)C(F)(F)F)c1C(=O)N1CC(Oc2ccc(F)c(F)c2)C1 [Example 195, 3-(3,4-Difluorophenoxy)-1-(3-methanesulfonyl-2-methoxy-6-{[(2S)-1,1,1-trifluoropropan-2-yl]oxy}benzoyl)azetidine] | 100 to 1000
19 | COc1c(S(C)(=O)=O)ccc(OC(C)C)c1C(=O)N1CC(c2ccc(F)c(F)c2)C1 [Example 216, 3-(3,4-Difluorophenyl)-1-[3-methanesulfonyl-2-methoxy-6-(propan-2-yloxy)benzoyl]azetidine] | 100 to 1000
20 | COc1c(C#N)ccc(OC(C)C(F)(F)F)c1C(=O)N1CC(c2ccncc2)C1 (stereo not shown) [Example 75, 2-Methoxy-3-{[3-(pyridin-4-yl)azetidin-1-yl]carbonyl}-4-[(1,1,1-trifluoropropan-2-yl)oxy]benzonitrile] | 1000 to 10000
21 | COc1c(S(C)(=O)=O)ccc(O[C@@H](C)C(F)(F)F)c1C(=O)N1CC(c2cc(F)c(F)cc2F)C1 [Example 154, 1-(3-Methanesulfonyl-2-methoxy-6-{[(2S)-1,1,1-trifluoropropan-2-yl]oxy}benzoyl)-3-(2,4,5-trifluorophenyl)azetidine] | < 100
22 | C[C@H](Oc1ccc(C#N)c(Cl)c1C(=O)N1CC(c2ccc(C3CCOCC3)cn2)C1)C(F)(F)F [Example 169, 2-Chloro-3-{3-[5-(oxan-4-yl)pyridin-2-yl]azetidine-1-carbonyl}-4-{[(2S)-1,1,1-trifluoropropan-2-yl]oxy}benzonitrile] | < 100
23 | COc1c(S(C)(=O)=O)ccc(O[C@@H](C)C(F)(F)F)c1C(=O)N1CC(c2cc(F)ccc2F)C1 [Example 41, 3-(2,5-Difluorophenyl)-1-(3-methanesulfonyl-2-methoxy-6-{[(2S)-1,1,1-trifluoropropan-2-yl]oxy}benzoyl)azetidine] | 100 to 1000
24 | CCS(=O)(=O)c1ccc(OC(C)C)c(C(=O)N2CC(Oc3c(F)cc(F)cc3F)C2)c1OC [Example 244, 1-[3-(Ethanesulfonyl)-2-methoxy-6-(propan-2-yloxy)benzoyl]-3-(2,4,6-trifluorophenoxy)azetidine] | < 100
25 | COc1c(C#N)ccc(OC(C)C(F)(F)F)c1C(=O)N1CC(c2ccc(C(F)(F)F)nc2)C1 (stereo not shown) [Example 113, 2-Methoxy-3-({3-[6-(trifluoromethyl)pyridin-3-yl]azetidin-1-yl}carbonyl)-4-[(1,1,1-trifluoropropan-2-yl)oxy]benzonitrile] | < 100
26 | COc1c(C#N)ccc(O[C@@H](C)C(F)(F)F)c1C(=O)N1CC(c2ccc(F)cc2C#N)C1 [Example 127, 3-{[3-(2-Cyano-4-fluorophenyl)azetidin-1-yl]carbonyl}-2-methoxy-4-{[(2S)-1,1,1-trifluoropropan-2-yl]oxy}benzonitrile] | < 100
27 | COc1c(C#N)ccc(OC(C)C(F)(F)F)c1C(=O)N1CC(c2cncc(C)c2)C1 (stereo not shown) [Example 111, 2-Methoxy-3-{[3-(5-methylpyridin-3-yl)azetidin-1-yl]carbonyl}-4-[(1,1,1-trifluoropropan-2-yl)oxy]benzonitrile] | 100 to 1000
28 | COc1c(S(C)(=O)=O)ccc(O[C@@H](C)C(F)(F)F)c1C(=O)N1CC(Oc2c(C)cccc2C)C1 [Example 45, 3-(2,6-Dimethylphenoxy)-1-(3-methanesulfonyl-2-methoxy-6-{[(2S)-1,1,1-trifluoropropan-2-yl]oxy}benzoyl)azetidine] | 1000 to 10000
